# Source: ChEMBL document CHEMBL4177736, “Monoterpene indole alkaloid azine derivatives as MDR reversal agents” (Bioorg Med Chem, 2018)
# The source made the active and inactive calls. The calls are words filed in the database; no cut-off is given here.
# Key:
# [1] = species on record: Homo sapiens; conditions: 5 uM
# Description: Inhibition of P-gp (unknown origin) expressed in mouse NIH/3T3 cells assessed as reduction in rhodamine 123 efflux at 5 uM incubated for 30 mins by flow cytometric analysis relative to control
# [2] = system: NIH3T3; assay: Cytotoxicity against MDR1-expressing mouse NIH/3T3 cells assessed as growth inhibition at 20 uM after 72 hrs by MTT assay; type: functional, cell-based
# [3] = Inhibition of P-gp (unknown origin) expressed in mouse NIH/3T3 cells assessed as reduction in rhodamine 123 efflux at 20 uM incubated for 30 mins by flow cytometric analysis relative to control; type: cell-based; conditions: Homo sapiens
# [4] = target: T1, BCRP (ABCG2) (Homo sapiens, UniProt Q9UNQ0); assay: Inhibition of BCRP (unknown origin) expressed in HEK293 cells assessed as reduction in mitoxantrone efflux at 20 uM incubated for 30 mins by flow cytometric analysis relative to control; type: cell-based; conditions: HEK293 cells expressing BCRP, probe mitoxantrone
# T1 sequence (Q9UNQ0 whole entry): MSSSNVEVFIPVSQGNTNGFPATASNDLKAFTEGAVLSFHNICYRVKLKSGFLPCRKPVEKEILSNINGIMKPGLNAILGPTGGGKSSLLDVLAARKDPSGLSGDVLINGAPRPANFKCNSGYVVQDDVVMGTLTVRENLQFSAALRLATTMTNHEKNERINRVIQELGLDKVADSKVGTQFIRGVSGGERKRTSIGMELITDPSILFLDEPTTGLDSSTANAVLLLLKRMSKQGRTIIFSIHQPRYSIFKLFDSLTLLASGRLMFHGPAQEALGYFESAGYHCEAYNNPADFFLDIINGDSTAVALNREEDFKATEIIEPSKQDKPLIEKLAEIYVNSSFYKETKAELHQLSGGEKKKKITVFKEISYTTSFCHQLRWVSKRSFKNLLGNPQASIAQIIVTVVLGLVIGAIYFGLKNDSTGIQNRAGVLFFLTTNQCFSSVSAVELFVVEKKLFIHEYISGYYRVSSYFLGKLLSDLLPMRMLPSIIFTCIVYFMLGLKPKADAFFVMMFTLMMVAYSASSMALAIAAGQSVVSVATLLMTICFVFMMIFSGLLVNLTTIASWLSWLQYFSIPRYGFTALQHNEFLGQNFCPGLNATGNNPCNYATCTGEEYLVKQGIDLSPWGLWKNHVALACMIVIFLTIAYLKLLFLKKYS
# [5] = target: T2, Multidrug resistance-associated protein 1 (Homo sapiens, UniProt P33527); assay: Inhibition of MRP1 (unknown origin) expressed in HEK293FlpIN cells assessed as reduction in calcein-AM efflux incubated for 30 mins by flow cytometric analysis; type: cell-based
# T2 sequence (P33527 whole entry): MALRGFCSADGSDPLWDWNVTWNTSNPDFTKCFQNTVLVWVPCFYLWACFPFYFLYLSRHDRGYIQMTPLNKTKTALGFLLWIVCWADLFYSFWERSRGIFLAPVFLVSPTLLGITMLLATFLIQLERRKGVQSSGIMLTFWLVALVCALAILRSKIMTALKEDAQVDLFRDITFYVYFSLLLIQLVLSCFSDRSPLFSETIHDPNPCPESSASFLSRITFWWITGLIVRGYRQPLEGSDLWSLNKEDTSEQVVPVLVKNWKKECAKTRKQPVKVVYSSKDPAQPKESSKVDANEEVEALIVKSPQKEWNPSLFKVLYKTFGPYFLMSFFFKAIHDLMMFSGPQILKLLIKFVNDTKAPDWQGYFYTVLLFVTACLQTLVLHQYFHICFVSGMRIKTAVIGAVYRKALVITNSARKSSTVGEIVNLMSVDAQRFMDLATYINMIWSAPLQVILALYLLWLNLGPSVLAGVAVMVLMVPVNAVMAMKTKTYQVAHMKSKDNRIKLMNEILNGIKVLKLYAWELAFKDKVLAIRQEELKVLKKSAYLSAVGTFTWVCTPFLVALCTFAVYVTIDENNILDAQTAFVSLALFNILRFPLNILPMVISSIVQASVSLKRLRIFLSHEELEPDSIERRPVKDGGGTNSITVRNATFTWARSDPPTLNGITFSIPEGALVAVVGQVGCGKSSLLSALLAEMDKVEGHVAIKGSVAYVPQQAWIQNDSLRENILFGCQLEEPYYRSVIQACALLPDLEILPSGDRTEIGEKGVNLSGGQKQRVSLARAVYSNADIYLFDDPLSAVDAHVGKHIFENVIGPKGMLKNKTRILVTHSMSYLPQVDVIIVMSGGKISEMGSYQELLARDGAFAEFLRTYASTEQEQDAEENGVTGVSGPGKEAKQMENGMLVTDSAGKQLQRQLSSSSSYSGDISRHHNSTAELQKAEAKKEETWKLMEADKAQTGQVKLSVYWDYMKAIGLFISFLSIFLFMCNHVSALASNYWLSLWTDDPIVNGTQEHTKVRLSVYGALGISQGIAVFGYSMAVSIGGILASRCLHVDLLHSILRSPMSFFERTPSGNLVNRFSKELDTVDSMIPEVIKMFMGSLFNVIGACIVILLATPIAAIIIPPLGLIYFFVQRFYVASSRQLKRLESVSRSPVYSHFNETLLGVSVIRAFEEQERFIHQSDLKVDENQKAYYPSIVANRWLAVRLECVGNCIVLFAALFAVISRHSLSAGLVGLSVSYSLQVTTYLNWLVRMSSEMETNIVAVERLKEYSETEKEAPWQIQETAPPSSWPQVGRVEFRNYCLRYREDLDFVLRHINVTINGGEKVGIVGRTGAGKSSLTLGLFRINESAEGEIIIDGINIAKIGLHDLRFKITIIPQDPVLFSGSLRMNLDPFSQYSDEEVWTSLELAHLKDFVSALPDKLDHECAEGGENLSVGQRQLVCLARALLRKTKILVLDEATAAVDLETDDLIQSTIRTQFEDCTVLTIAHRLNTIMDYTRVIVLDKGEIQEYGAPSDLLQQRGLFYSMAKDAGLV
# [6] = system: NIH3T3; assay: Cytotoxicity against mouse NIH/3T3 cells assessed as reduction in cell viability at 20 uM after 72 hrs by MTT assay; type: cell-based; conditions: nih3t3, 72 h
# [7] = target: MRP1 (Homo sapiens, UniProt P33527); assay: Inhibition of MRP1 (unknown origin) expressed in HEK293FlpIN cells assessed as reduction in calcein-AM efflux at 20 uM incubated for 30 mins by flow cytometric analysis relative to control; type: cell-based; conditions: HEK293FlpIN cells expressing MRP1, probe calcein-AM
# Chain of MRP1 (P33527 whole entry): as above
# [8] = Cytotoxicity against HEK293FlpIN cells assessed as reduction in cell viability at 10 to 20 uM after 72 hrs by MTT assay; type: cell-based; conditions: human
# [9] = system: BHK-21; assay: Cytotoxicity against MRP1-expressing BHK21 cells assessed as growth inhibition at 20 uM after 72 hrs by MTT assay; type: functional; conditions: Mesocricetus auratus; for inhibition of growth at 20 µM: BHK-21, 72 h, read-out: GI
# [10] = target: T2, Multidrug resistance-associated protein 1; assay: Inhibition of MRP1 (unknown origin) expressed in HEK293FlpIN cells assessed as potentiation of vincristine-induced cytotoxicity by measuring decrease in cell growth at 10 to 20 uM after 72 hrs by MTT assay relative to control; type: cell-based; parameters: scale not given: the % may be the effect or the level left
# [11] = species on record: Homo sapiens; assay: Cytotoxicity against MRP1-expressing HEK293FlpIN cells assessed as reduction in cell viability at 10 to 20 uM after 72 hrs by MTT assay; type: functional, cell-based
# [12] = target: T2, Multidrug resistance-associated protein 1; assay: Inhibition of MRP1 (unknown origin) expressed in BHK21 cells assessed as GSH efflux at 20 uM incubated for 3 hrs measured every 30 secs for 2 mins by GSH reductase enzyme based assay (reference value: 100%); type: cell-based; conditions: 3 h, 20 µM
# [13] = system: BHK-21; assay: Cytotoxicity against wild type BHK21 cells assessed as reduction in cell viability at 20 uM after 72 hrs by MTT assay; type: cell-based, Mesocricetus auratus; conditions: hamster, bhk-21, 72 h
# [14] = species on record: Homo sapiens; assay: Inhibition of P-gp (unknown origin) expressed in mouse NIH/3T3 cells assessed as potentiation of paclitaxel-induced cytotoxicity by measuring decrease in cell viability at 10 uM after 72 hrs by MTT assay; type: cell-based
# [15] = species on record: Homo sapiens; assay: Inhibition of P-gp (unknown origin) expressed in mouse NIH/3T3 cells assessed as reduction in rhodamine 123 efflux at 1 uM incubated for 30 mins by flow cytometric analysis relative to control; type: cell-based
# [16] = species on record: Homo sapiens; assay: Inhibition of P-gp (unknown origin) expressed in mouse NIH/3T3 cells assessed as reduction in rhodamine 123 efflux at 10 uM incubated for 30 mins by flow cytometric analysis relative to control; type: cell-based
# [17] = species on record: Homo sapiens; assay: Inhibition of P-gp (unknown origin) expressed in mouse NIH/3T3 cells assessed as potentiation of paclitaxel-induced cytotoxicity by measuring decrease in cell viability at 10 to 20 uM after 72 hrs by MTT assay; type: cell-based
SMILES,IC50 [5] [nM],"inhibition (INH) ([5]; human, 0.5 h)","inhibition at 0.5 h, 20 µM [7] [%]",inhibition (INH) [12],inhibition [1] [%],growth inhibition (GI) [2],inhibition [3] [%],"inhibition at 0.5 h, 20 µM [4] [%]",Activity [6],Activity [8],growth inhibition (GI) [9],Activity [10] [%],inhibition [11],Activity [13],inhibition of growth at 20 µM [9] [%],inhibition [14],inhibition [15] [%],inhibition [16] [%],inhibition [17]
COc1cc2c(cc1OC)CN(CCc1ccc(NC(=O)c3cccc4c(=O)c5cccc(OC)c5[nH]c34)cc1)CC2,–,–,–,–,100,–,–,–,–,–,–,–,–,–,–,–,–,–,–
CC[C@@H]1CN(C)[C@H]2Cc3c([nH]c4ccccc34)/C(=N/N=C\c3ccc(O)c(OC)c3)C[C@H]1[C@H]2C(=O)OC,> 1000,Dose-dependent effect,87.3,Not Active,–,Active,24.3,9,Non-Toxic,Non-Toxic,Active,60,inactive,Non-Toxic,–,–,–,–,–
CC[C@@H]1CN(C)[C@H]2Cc3c([nH]c4ccccc34)/C(=N/N=C\c3c[nH]c4ccccc34)C[C@H]1[C@H]2C(=O)OC,–,–,50.2,–,–,Active,102,4.2,Non-Toxic,–,–,–,–,Non-Toxic,90 to 98,–,18,70,–
CC[C@H]1CN(C)[C@H]2Cc3c([nH]c4ccccc34)/C(=N/N=C\c3c[nH]c4ccccc34)C[C@H]1[C@H]2C(=O)OC,–,–,70.5,–,–,Active,116,4.9,Non-Toxic,–,–,–,–,Non-Toxic,90 to 98,–,38,73,–

# Now from value to compound, other results behind:
IC50 [5] [nM],"inhibition (INH) ([5]; human, 0.5 h)","inhibition at 0.5 h, 20 µM [7] [%]",inhibition (INH) [12],SMILES,inhibition [1] [%],growth inhibition (GI) [2],inhibition [3] [%],"inhibition at 0.5 h, 20 µM [4] [%]",Activity [6],Activity [8],growth inhibition (GI) [9],Activity [10] [%],inhibition [11],Activity [13],inhibition of growth at 20 µM [9] [%],inhibition [14],inhibition [15] [%],inhibition [16] [%],inhibition [17]
–,–,8.8,–,CC[C@@H]1CN(C)[C@H]2Cc3c([nH]c4ccccc34)/C(=N/N=C\c3ccc(C)cc3)C[C@H]1[C@H]2C(=O)OC,–,Active,73.8,1.7,Non-Toxic,–,–,–,–,Non-Toxic,90 to 98,Active,–,–,–
–,–,20.4,–,CC[C@H]1CN(C)[C@H]2Cc3c([nH]c4ccccc34)/C(=N/N=C\c3ccc(C)cc3)C[C@H]1[C@H]2C(=O)OC,–,Active,86.1,2.4,Non-Toxic,–,–,–,–,Non-Toxic,90 to 98,–,–,–,Active
